Among the data in ChEMBL document CHEMBL3638563, “Quinazoline compounds as kinase inhibitors” (2014) are IC50 values, retold here.

In test [1] the target is RAF proto-oncogene serine/threonine-protein kinase (Homo sapiens, UniProt P04049). Kind of test: (§1) Kinase Assay: Inhibition of kinase activity by test compound disclosed herein was estimated by quantifying the amount of [33P] incorporation of substrate in the presence of test compound. Standard assay conditions were 2 ng of recombinant C-Raf or 5 ng of recombinant B-Raf or 5 ng of recombinant B-Raf (V600E) kinase (Upstate Biotechnology) with 500 ng MEK1(K97R) in assay buffer {8 μM ATP, 0.5 μCi [33P]ATP (specific activity 3000 Ci/mmol, PerkinElmer), 50 mM Tris/HCl (pH7.5), and 1 mM EGTA, 1 mM Na3VO4, 1% 2-mercaptoethanol, 0.1% Brij 35, and 0.2 mg/ml BSA} at a final volume of 25 μL. Reactions were incubated at 30° C. for 30 min and stopped by adding 3% phosphoric acid, harvested onto a 96-well GF/B UniFilter (PerkinElmer) using a unifilter harvester (PerkinElmer), and counted with a TopCount microplate scintillation counter (PerkinElmer). The IC50 values of inhibitors were determined after carrying out assays at 3-fold serially diluted concentrations of each compound in duplication.

Test [2] concerns the target Serine/threonine-protein kinase B-raf (Homo sapiens, UniProt P15056). The description is as §1.

Structures are written as SMILES. pIC50: −log10 of the molar value.

Sequence of RAF proto-oncogene serine/threonine-protein kinase (P04049 whole entry): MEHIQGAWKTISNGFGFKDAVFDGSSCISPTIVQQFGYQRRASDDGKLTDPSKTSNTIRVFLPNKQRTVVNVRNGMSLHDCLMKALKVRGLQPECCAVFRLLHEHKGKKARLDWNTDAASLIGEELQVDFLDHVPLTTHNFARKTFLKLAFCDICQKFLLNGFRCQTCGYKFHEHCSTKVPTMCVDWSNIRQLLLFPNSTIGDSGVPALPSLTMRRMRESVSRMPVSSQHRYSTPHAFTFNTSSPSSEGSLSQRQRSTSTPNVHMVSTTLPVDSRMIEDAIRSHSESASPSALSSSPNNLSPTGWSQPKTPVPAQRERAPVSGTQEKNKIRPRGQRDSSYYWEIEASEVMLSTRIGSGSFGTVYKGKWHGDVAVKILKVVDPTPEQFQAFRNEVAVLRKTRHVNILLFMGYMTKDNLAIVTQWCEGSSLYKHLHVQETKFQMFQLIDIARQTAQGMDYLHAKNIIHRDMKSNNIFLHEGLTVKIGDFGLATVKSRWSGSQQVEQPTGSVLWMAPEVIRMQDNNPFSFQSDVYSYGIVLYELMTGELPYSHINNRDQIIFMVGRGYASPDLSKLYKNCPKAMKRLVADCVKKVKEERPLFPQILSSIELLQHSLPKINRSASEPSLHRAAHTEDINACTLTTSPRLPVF
Sequence of Serine/threonine-protein kinase B-raf (P15056 whole entry): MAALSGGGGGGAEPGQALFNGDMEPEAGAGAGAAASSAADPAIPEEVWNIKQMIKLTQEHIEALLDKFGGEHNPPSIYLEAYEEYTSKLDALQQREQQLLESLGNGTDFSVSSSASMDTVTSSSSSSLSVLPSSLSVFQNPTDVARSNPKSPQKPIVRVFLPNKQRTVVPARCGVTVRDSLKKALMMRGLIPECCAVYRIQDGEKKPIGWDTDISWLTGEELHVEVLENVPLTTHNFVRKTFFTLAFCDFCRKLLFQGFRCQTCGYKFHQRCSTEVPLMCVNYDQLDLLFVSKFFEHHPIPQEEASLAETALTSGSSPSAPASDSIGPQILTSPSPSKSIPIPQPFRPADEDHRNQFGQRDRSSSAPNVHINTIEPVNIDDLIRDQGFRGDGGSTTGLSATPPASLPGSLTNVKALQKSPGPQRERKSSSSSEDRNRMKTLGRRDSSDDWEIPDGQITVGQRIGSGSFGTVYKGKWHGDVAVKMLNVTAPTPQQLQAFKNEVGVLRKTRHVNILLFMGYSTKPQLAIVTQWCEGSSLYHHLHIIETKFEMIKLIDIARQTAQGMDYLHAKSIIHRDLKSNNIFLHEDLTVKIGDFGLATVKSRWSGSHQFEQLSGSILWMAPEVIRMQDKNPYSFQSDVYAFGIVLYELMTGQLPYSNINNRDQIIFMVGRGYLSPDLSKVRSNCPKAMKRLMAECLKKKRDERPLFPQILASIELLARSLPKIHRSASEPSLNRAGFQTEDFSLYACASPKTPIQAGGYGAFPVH

As to `Nc1ccc(F)c(-c2ccc3ncnc(Nc4cccc5[nH]ncc45)c3c2)c1`, the pIC50 in test [1] was 5.63; in test [2] it was 6.60.
